The record followed here is patent US20250302999A1, “TRANSGENE CASSETTES AND EPIGENETIC SILENCERS FOR THE TREATMENT OF DISORDERS” (Ospedale San Raffaele S.r.I., priority 2022, published 2025).

The subject of the test is SNB19 cells. Put plainly: Wound healing assay. Format: cell-based, human. The settings on record: 48 hrs after scratching; scratch 2 days after start of treatment. How it is done: The wound healing assay was carried out according to Zhang et al. (2018) J Mol Neurosci 64:262-272. At the designated time, five randomly selected fields at the lesion border were acquired under an inverted microscope (Olympus, IX71). The mean number of cells at the control group was defined as 100% and the mean number of other groups was normalised by means of the control group, respectively.

For the substance verteporfin, the “wound healing (cell migration)” value is recorded as “healed more slowly”.
